Measured values from patent US20260240826A1, “COMPOSITIONS FOR PD-L1 INHIBITION AND METHODS OF USE THEREOF” (ARIZONA BOARD OF REGENTS ON BEHALF OF THE UNIVERSITY OF …, priority 2023, published 2026).

Experiments:
[1] = screening based on physicochemical properties (Log P, UVA/UVB absorbance); conditions: data not shown
[2] = tested on: Il1β, Il6, Il10, Tnfα, Ptgs2, Tlr4 expression in SKH-1 mouse skin; experiment: RT-qPCR of SSL-induced inflammatory genes in SKH-1 mouse skin; format: in vivo; conditions: 8 mM BMS-202+SSL vs vehicle+SSL; 24 hr
Procedure: (§1) UVB exposure was performed on AP-1 luciferase reporter mice on the SKH-1 genetic background at a dose of 2.75 kJ/m2 using FS40 bulbs (Q-Lab Corporation) as described before with the modification that mice were imaged 24 hr post UVB exposure using whole body bioluminescence instead of 48 hr post UVB using ear punches. SSL irradiation of SKH-1 mice (Charles River Laboratories, strain code 477) at a dose of 90 kJ/m2 UVA/6 kJ/m2 UVB was performed using UVA-340 bulbs (Q-Lab Corporation) as described before.
Total RNA was isolated from SSL-treated mouse skin using the Qiagen RNeasy Mini Kit (Qiagen) according to the manufacturer's protocol. RNA integrity was checked by the RNA 6000 Nano chip kit using Agilent 2100 Bioanalyzer (Agilent Technologies). […] Then, 10 ng of cDNA was used for amplification of target genes by quantitative PCR using the following conditions: 95° C. for 10 min followed by 95° C. for 15 sec and 60° C. for 1 min for a total of 40 cycles performed in the ABI7500 Real-Time PCR System (Applied Biosystems). […] After amplification plots were generated, the Ct values (cycle number at which fluorescence reaches threshold) were recorded and quantified using the comparative (ΔΔCt) Ct method as described in the ABI Prism 7500 sequence detection system user guide. Statistical significance was calculated employing the Student's two-tailed t-test.

cleaved caspase-3 = cleaved caspase-3 immunohistochemistry of SKH-1 mouse skin; format: in vivo; conditions: BMS-202+SSL, 24 hr; vehicle+SSL over 60%
Procedure: as §1
Caspase-3: Briefly, deparaffinized mouse skin slides were subjected to antigen retrieval using a Decloaking chamber in Rodent Decloaker HIER solution (both from Biocare, 115° C. 30 seconds, then 90° C. 10 seconds) followed by blocking with first 3% hydrogen peroxide (10 minutes) and then 5% normal goat serum in PBST (1 hour). Slides were then incubated in a 1:300 dilution of anti-cleaved caspase-3 antibody (#9661, Cell Signal Technology) at 4° C. overnight. […] For quantification, the average count (caspase 3-positive per total epidermal cells) in four fields/slide (20× field) was determined for each mouse skin specimen and calculated per group (n=3).
Mouse IHC data were analyzed using Kruskal-Wallis non-parametric data analysis (GraphPad Prism 10.0 software). […]

PD-L1 [3] = experiment: SSL-induced PD-L1 protein in SKH-1 mouse epidermis, immunoblot; format: in vivo; conditions: topical 8 mM; 24 hr post SSL
Procedure: as §1
Cells were lysed in RIPA containing 1×HALT protease+phosphatase inhibitor cocktail (ThermoFisher Scientific) and 100 mM PMSF and protein concentrations were assessed using BCA assay (Bio-Rad). Mouse epidermal protein lysates for immunoblot analysis were derived from scraped frozen SKH-1 skins as described previously (Blohm-Mangone et al., 2018). Twenty μg of protein/lane were loaded onto 10% gels for electrophoresis/immunoblotting using established protocols. Human cell lysate blots were probed with Cell Signaling PD-L1 antibody #13684, and mouse epidermal lysate blots were probed with Invitrogen PD-L1 antibody #PA5-20343. Beta-actin (Cell Signaling #4970) was used as a loading control. An anti-rabbit secondary antibody (Cell Signaling #7074) was used for all blots using standard chemiluminescent protocols (Thermo Scientific Pico ECL #34577). […]

PD-L1 [4] = experiment: PD-L1 immunohistochemistry of SKH-1 mouse skin; format: in vivo; conditions: topical 8 mM pre/post; 24 hr post SSL
Procedure: as §1
PD-L1: IHC staining for PD-L1 in mouse skins was performed using the NBP1-43262 antibody (Novus). Epidermal PD-L1 expression is shown as percent staining determined by ImageJ (NIH, open source) quantification using color deconvolution of the brown stain with a uniform threshold between all samples. Each skin sample (n=3, 20× field) was used to measure at least 3 fields per specimen with the exclusion of hair follicles, if present.
Mouse IHC data were analyzed using Kruskal-Wallis non-parametric data analysis (GraphPad Prism 10.0 software). IHC images shown are magnified according to the 100 μm scale bar contained in the respective panel as specified throughout the figure legends.

[5] = cited from earlier work

Structure (SMILES): COc1nc(OCc2cccc(-c3ccccc3)c2C)ccc1CNCCNC(C)=O [BMS-202]
- UVA/UVB absorbance [1]: absence of UVA/UVB absorbance
- UV-induced expression of Il1β, Il6, Il10, Tnfα, Ptgs2, Tlr4 (RT-qPCR) [2]: strong downregulation
- percentage of epidermal cells staining positive for cleaved caspase-3 (cleaved caspase-3): approximately 10%
- UV-induced PD-L1 upregulation at the protein level (immunoblot) (PD-L1 [3]): significantly antagonized
- antagonistic effect on PD-L1 protein, pre- and post-UV application versus pre only (PD-L1 [3]): more pronounced
- epidermal PD-L1 staining (IHC) (PD-L1 [4]): pronounced inhibition
- Log P [5]: 3.6
